# Measurements reported in patent publication US12110286B2, “Benzimidazolone derived inhibitors of BCL6” (Cancer Research Technology Limited, priority 2017, dated 2024).
# Molecular target: Trx-6×His-BCL6 (human BCL6 BTB domain covering amino-acid sequence 5-129) (Homo sapiens (Human), UniProt P41182)
# Assay: HTRF in vitro assay (BCL6 / BCOR-AF633 peptide)
# Format: binding
# Details: further generated data; 1 nM Trx-6×His-BCL6, 300 nM BCOR-AF633 peptide, 0.5 nM anti-6×His-Terbium cryptate
# Method: The % inhibition at each concentration was calculated by normalising FRET ratio to the appropriate high (DMSO with all reagents) and low (DMSO without BCL6) controls.
row,Structure (SMILES),HTRF pIC50
1,"Cn1c(=O)n(CC2C[C@H](F)CN2CC(F)(F)F)c2cc(Nc3ccnc(Cl)c3C#N)ccc21 (stereo in doubt) [Example 25h, 2-chloro-4-((3-(((2R,4S)-4-fluoro-1-(2,2,2-trifluoroethyl)pyrrolidin-2-yl)methyl)-1-methyl-2-oxo-2,3-dihydro-1H-benzo[d]imidazol-5-yl)amino)nicotinonitrile]",5.55

# Same assay, conditions: result in words
row,Structure (SMILES),activity in the HTRF assay
1,"Cn1c(=O)n(C)c2cc(Nc3ccncc3C(F)(F)F)ccc21 [1,3-dimethyl-5-((3-(trifluoromethyl)pyridin-4-yl)amino)-1,3-dihydro-2H-benzo[d]imidazol-2-one]",did not exhibit the desired activity
2,"Cn1c(=O)n(C)c2cc(Nc3cc(C(F)(F)F)nc4ncnn34)ccc21 [1,3-dimethyl-5-((5-(trifluoromethyl)-[1,2,4]triazolo[1,5-a]pyrimidin-7-yl)amino)-1,3-dihydro-2H-benzo[d]imidazol-2-one]",did not exhibit the desired activity
3,"Cc1cncnc1Nc1ccc2c(c1)n(C)c(=O)n2C [1,3-dimethyl-5-((5-methylpyrimidin-4-yl)amino)-1,3-dihydro-2H-benzo[d]imidazol-2-one]",did not exhibit the desired activity
4,"Cn1c(=O)n(CCc2ccccc2)c2cc(Nc3ccnc4ccnn34)ccc21 [1-methyl-3-phenethyl-5-(pyrazolo[1,5-a]pyrimidin-7-ylamino)-1,3-dihydro-2H-benzo[d]imidazol-2-one]",did not exhibit the desired activity
5,"Cn1c(=O)n(CC2CCOCC2)c2cc(Nc3ccnc(Cl)c3C#N)ccc21 [2-chloro-4-((1-methyl-2-oxo-3-((tetrahydro-2H-pyran-4-yl)methyl)-2,3-dihydro-1H-benzo[d]imidazol-5-yl)amino)nicotinonitrile]",did not exhibit the desired activity
6,"Cn1c(=O)n(CC2CCCNC2)c2cc(Nc3ccnc(Cl)c3C#N)ccc21 (stereo not shown) [2-chloro-4-((1-methyl-2-oxo-3-(piperidin-3-ylmethyl)-2,3-dihydro-1H-benzo[d]imidazol-5-yl)amino)nicotinonitrile]",did not exhibit the desired activity
7,"Cn1c(=O)n(CC2CCNCC2)c2cc(Nc3ccnc(Cl)c3C#N)ccc21 [2-chloro-4-((1-methyl-2-oxo-3-(piperidin-4-ylmethyl)-2,3-dihydro-1H-benzo[d]imidazol-5-yl)amino)nicotinonitrile]",did not exhibit the desired activity
8,"Cn1c(=O)n(CCN2CCOCC2)c2cc(Nc3ccnc(Cl)c3C#N)ccc21 [2-chloro-4-((1-methyl-3-(2-morpholinoethyl)-2-oxo-2,3-dihydro-1H-benzo[d]imidazol-5-yl)amino)nicotinonitrile]",did not exhibit the desired activity
9,"CCN(CC)CCn1c(=O)n(C)c2ccc(Nc3ccnc(Cl)c3C#N)cc21 [2-chloro-4-((3-(2-(diethylamino)ethyl)-1-methyl-2-oxo-2,3-dihydro-1H-benzo[d]imidazol-5-yl)amino)nicotinonitrile]",did not exhibit the desired activity
10,"CCC(C)(O)Cn1c(=O)n(C)c2ccc(Nc3ccnc(Cl)c3C#N)cc21 (stereo not shown) [2-chloro-4-((3-(2-hydroxy-2-methylbutyl)-1-methyl-2-oxo-2,3-dihydro-1H-benzo[d]imidazol-5-yl)amino)nicotinonitrile]",did not exhibit the desired activity
11,"Cn1c(=O)n(CC(O)C(C)(C)C)c2cc(Nc3ccnc(Cl)c3C#N)ccc21 (stereo not shown) [2-chloro-4-((3-(2-hydroxy-3,3-dimethylbutyl)-1-methyl-2-oxo-2,3-dihydro-1H-benzo[d]imidazol-5-yl)amino)nicotinonitrile]",did not exhibit the desired activity
12,"Cn1c(=O)n(CC2CCOC2(C)C)c2cc(Nc3ccnc(Cl)c3C#N)ccc21 (stereo not shown) [2-chloro-4-((3-((2,2-dimethyltetrahydrofuran-3-yl)methyl)-1-methyl-2-oxo-2,3-dihydro-1H-benzo[d]imidazol-5-yl)amino)nicotinonitrile]",did not exhibit the desired activity
13,"Cn1c(=O)n(CC2CC(C)(C)C2)c2cc(Nc3ccnc(Cl)c3C#N)ccc21 [2-chloro-4-((3-((3,3-dimethylcyclobutyl)methyl)-1-methyl-2-oxo-2,3-dihydro-1H-benzo[d]imidazol-5-yl)amino)nicotinonitrile]",did not exhibit the desired activity

# Second part, the compound after the results:
row,activity in the HTRF assay,Structure (SMILES)
1,did not exhibit the desired activity,"Cn1c(=O)n(CC2(CO)COC2)c2cc(Nc3ccnc(Cl)c3C#N)ccc21 [2-chloro-4-((3-((3-(hydroxymethyl)oxetan-3-yl)methyl)-1-methyl-2-oxo-2,3-dihydro-1H-benzo[d]imidazol-5-yl)amino)nicotinonitrile]"
2,did not exhibit the desired activity,"Cn1c(=O)n(CC2(C#N)CCOCC2)c2cc(Nc3ccnc(Cl)c3C#N)ccc21 [2-chloro-4-((3-((4-cyanotetrahydro-2H-pyran-4-yl)methyl)-1-methyl-2-oxo-2,3-dihydro-1H-benzo[d]imidazol-5-yl)amino)nicotinonitrile]"
3,did not exhibit the desired activity,"Cn1c(=O)n(C)c2cc(Nc3ccnc(C(F)(F)F)c3C#N)ccc21 [4-((1,3-dimethyl-2-oxo-2,3-dihydro-1H-benzo[d]imidazol-5-yl)amino)-2-(trifluoromethyl)nicotinonitrile]"
4,did not exhibit the desired activity,"Cc1nccc(Nc2ccc3c(c2)n(C)c(=O)n3C)c1C#N [4-((1,3-dimethyl-2-oxo-2,3-dihydro-1H-benzo[d]imidazol-5-yl)amino)-2-methylnicotinonitrile]"
5,did not exhibit the desired activity,"Cn1c(=O)n(C)c2cc(Nc3ncncc3C#N)ccc21 [4-((1,3-dimethyl-2-oxo-2,3-dihydro-1H-benzo[d]imidazol-5-yl)amino)pyrimidine-5-carbonitrile]"
6,did not exhibit the desired activity,"Cn1c(=O)n(CC2CCN2)c2cc(Nc3ccnc(Cl)c3C#N)ccc21 (stereo not shown) [4-((3-(azetidin-2-ylmethyl)-1-methyl-2-oxo-2,3-dihydro-1H-benzo[d]imidazol-5-yl)amino)-2-chloronicotinonitrile]"
7,did not exhibit the desired activity,"Cn1c(=O)n(CCC(C)(O)CCO)c2cc(Nc3nc(Cl)ncc3Cl)ccc21 (stereo not shown) [5-((2,5-dichloropyrimidin-4-yl)amino)-3-(3,5-dihydroxy-3-methylpentyl)-1-methyl-1,3-dihydro-2H-benzo[d]imidazol-2-one]"
8,did not exhibit the desired activity,"Cn1c(=O)n(CCC(C)(C)O)c2cc(Nc3ccnc(Cl)c3C(F)F)ccc21 [5-((2-chloro-3-(difluoromethyl)pyridin-4-yl)amino)-3-(3-hydroxy-3-methylbutyl)-1-methyl-1,3-dihydro-2H-benzo[d]imidazol-2-one]"
9,did not exhibit the desired activity,"Cn1c(=O)n(CCC(C)(C)O)c2cc(Nc3ccnc(Cl)c3C(F)(F)F)ccc21 [5-((2-chloro-3-(trifluoromethyl)pyridin-4-yl)amino)-3-(3-hydroxy-3-methylbutyl)-1-methyl-1,3-dihydro-2H-benzo[d]imidazol-2-one]"
10,did not exhibit the desired activity,"Cn1c(=O)n(CCC(C)(C)O)c2cc(Nc3cc(Cl)ncc3C(F)F)ccc21 [5-((2-chloro-5-(difluoromethyl)pyridin-4-yl)amino)-3-(3-hydroxy-3-methylbutyl)-1-methyl-1,3-dihydro-2H-benzo[d]imidazol-2-one]"
11,did not exhibit the desired activity,"Cn1c(=O)n(CCC(C)(C)O)c2cc(Nc3c(Cl)cncc3Cl)ccc21 [5-((3,5-dichloropyridin-4-yl)amino)-3-(3-hydroxy-3-methylbutyl)-1-methyl-1,3-dihydro-2H-benzo[d]imidazol-2-one]"
12,did not exhibit the desired activity,"COCCNc1cc(Nc2ccc3c(c2)n(C)c(=O)n3C)n2nccc2n1 [5-((5-((2-methoxyethyl)amino)pyrazolo[1,5-a]pyrimidin-7-yl)amino)-1,3-dimethyl-1,3-dihydro-2H-benzo[d]imidazol-2-one]"
13,did not exhibit the desired activity,"COc1c(Cl)ncnc1Nc1ccc2c(c1)n(C)c(=O)n2C [5-((6-chloro-5-methoxypyrimidin-4-yl)amino)-1,3-dimethyl-1,3-dihydro-2H-benzo[d]imidazol-2-one]"
14,did not exhibit the desired activity,"Cn1c(=O)n(CCC(C)(C)O)c2cc(Nc3cc4nccn4cc3Cl)ccc21 [5-((6-chloroimidazo[1,2-a]pyridin-7-yl)amino)-3-(3-hydroxy-3-methylbutyl)-1-methyl-1,3-dihydro-2H-benzo[d]imidazol-2-one]"
15,did not exhibit the desired activity,"Cn1c(=O)n(CCC(C)(C)O)c2cc(Nc3nc(Cl)ncc3Cl)ncc21 [6-((2,5-dichloropyrimidin-4-yl)amino)-1-(3-hydroxy-3-methylbutyl)-3-methyl-1,3-dihydro-2H-imidazo[4,5-c]pyridin-2-one]"
16,did not exhibit the desired activity,"Cn1c(=O)n(CCC(C)(C)O)c2cc(Nc3ccncc3Cl)ncc21 [6-((3-chloropyridin-4-yl)amino)-1-(3-hydroxy-3-methylbutyl)-3-methyl-1,3-dihydro-2H-imidazo[4,5-c]pyridin-2-one]"
17,did not exhibit the desired activity,"Cn1c(=O)n(CCC(C)(C)O)c2cc(Nc3cc(-n4ccc(C(F)(F)F)n4)ncc3Cl)ncc21 [6-((5-chloro-2-(3-(trifluoromethyl)-1H-pyrazol-1-yl)pyridin-4-yl)amino)-1-(3-hydroxy-3-methylbutyl)-3-methyl-1,3-dihydro-2H-imidazo[4,5-c]pyridin-2-one]"
